The compounds below were run against T1, Human NK1 Receptor (Homo sapiens, UniProt P25103) (assay: In Vitro Human NK1 Receptor Binding Assay ([125I]Bolton-Hunter substance P displacement, IM9 cells)). Details: Human lymphoma IM9 cells, [125I]Bolton-Hunter substance P; Table 3, array-synthesis products; read-out: IC50 (nM) hNK1.
T1 construct: endogenous in cells; host or cells: Human lymphoma IM9 cells (whole cells)
In short: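 Radioligand displacement on whole IM9 human lymphoma cells (2.5×10^6 cells/mL) using [125I]Bolton-Hunter substance P (0.05-0.1 nM), 50 min at 21° C in Tris pH 7.4/MnCl2 buffer with protease inhibitors. Non-specific binding defined by […] [Sar9, Met(O2)11] substance P. Filtration, gamma counting, iterative curve fitting.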

T1 sequence (P25103 whole entry): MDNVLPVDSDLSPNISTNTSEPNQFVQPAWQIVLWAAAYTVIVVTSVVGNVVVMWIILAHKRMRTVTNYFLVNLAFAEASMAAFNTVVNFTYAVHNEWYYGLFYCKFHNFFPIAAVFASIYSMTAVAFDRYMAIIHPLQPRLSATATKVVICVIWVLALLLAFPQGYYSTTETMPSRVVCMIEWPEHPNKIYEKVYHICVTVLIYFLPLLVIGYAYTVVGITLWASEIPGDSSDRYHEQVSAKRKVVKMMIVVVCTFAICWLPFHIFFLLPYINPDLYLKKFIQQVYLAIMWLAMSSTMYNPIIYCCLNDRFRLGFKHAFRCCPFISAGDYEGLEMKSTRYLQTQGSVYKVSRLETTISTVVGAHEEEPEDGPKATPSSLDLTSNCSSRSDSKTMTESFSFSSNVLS

Compound | IC50
O=C(NCc1ccc2c(c1)OCO2)C(Cc1c[nH]c2ccccc12)NCc1cc2ccccc2o1 (stereo not drawn) [Example 267, N-Benzo[1,3]-dioxol-5-ylmethyl-2-[(benzofuran-2-ylmethyl)-amino]-3-(1H-indol-3-yl)-propionamide] | 55 nM
O=C(NC1CCCCC1)C(Cc1c[nH]c2ccccc12)NCc1cc2ccccc2o1 (stereo not drawn) [Example 276, 2-[(Benzofuran-2-ylmethyl)-amino]-N-cyclohexyl-3-(1H-indol-3-yl)-propionamide] | 655 nM
O=C(NCc1ccco1)C(Cc1c[nH]c2ccccc12)NCc1cc2ccccc2o1 (stereo not drawn) [Example 261, 2-[(Benzofuran-2-ylmethyl)-amino]-N-furan-2-ylmethyl-3-(1H-indol-3-yl)-propionamide] | 406 nM
Cc1ccc(CNC(=O)C(Cc2c[nH]c3ccccc23)NCc2cc3ccccc3o2)cc1 (stereo not drawn) [Example 209, 2-[(Benzofuran-2-ylmethyl)-amino]-3-(1H-indol-3-yl)-N-(4-methyl-benzyl)-propionamide] | 82 nM
O=C(NCCc1c[nH]c2ccccc12)C(Cc1c[nH]c2ccccc12)NCc1cc2ccccc2o1 (stereo not drawn) [Example 280, 2-[(Benzofuran-2-ylmethyl)-amino]-3-(1H-indol-3-yl)-N-[2-(1H-indol-3-yl)-ethyl]-propionamide] | 2540 nM
O=C(NCc1ccc(Cl)cc1)C(Cc1c[nH]c2ccccc12)NCc1cc2ccccc2o1 (stereo not drawn) [Example 258, 2-[(Benzofuran-2-ylmethyl)-amino]-N-(4-chloro-benzyl)-3-(1H-indol-3-yl)-propionamide] | 46 nM
O=C(NCc1ccc([N+](=O)[O-])cc1)C(Cc1c[nH]c2ccccc12)NCc1cc2ccccc2o1 (stereo not drawn) [Example 221, 2-[(Benzofuran-2-ylmethyl)-amino]-3-(1H-indol-3-yl)-N-(4-nitro-benzyl)-propionamide] | 23 nM
O=C(NCc1nc2ccccc2[nH]1)C(Cc1c[nH]c2ccccc12)NCc1cc2ccccc2o1 (stereo not drawn) [Example 250, 2-[(Benzofuran-2-ylmethyl)-amino]-N-(1H-benzoimidazol-2-ylmethyl)-3-(1H-indol-3-yl)-propionamide] | 3410 nM

Next, values leading:

IC50 | Compound
2000 nM | CC(CNC(=O)C(Cc1c[nH]c2ccccc12)NCc1cc2ccccc2o1)c1ccccc1 (stereo not drawn) [Example 233, 2-[(Benzofuran-2-ylmethyl)-amino]-3-(1H-indol-3-yl)-N-(2-phenyl-propyl)-propionamide]
> 10000 nM | O=C(NC1CCC(O)CC1)C(Cc1c[nH]c2ccccc12)NCc1cc2ccccc2o1 (stereo not drawn) [Example 273, 2-[(Benzofuran-2-ylmethyl)-amino]-N-(4-hydroxy-cyclohexyl)-3-(1H-indol-3-yl)-propionamide]
174 nM | O=C(NCc1ccccc1Br)C(Cc1c[nH]c2ccccc12)NCc1cc2ccccc2o1 (stereo not drawn) [Example 302, 2-[(Benzofuran-2-ylmethyl)-amino]-N-(2-bromo-benzyl)-3-(1H-indol-3-yl)-propionamide]
77 nM | O=C(NCCc1ccccc1)C(Cc1c[nH]c2ccccc12)NCc1cc2ccccc2o1 (stereo not drawn) [Example 246, 2-[(Benzofuran-2-ylmethyl)-amino]-3-(1H-indol-3-yl)-N-phenethyl-propionamide]
55 nM | O=C(NCCc1cccc(F)c1)C(Cc1c[nH]c2ccccc12)NCc1cc2ccccc2o1 (stereo not drawn) [Example 293, 2-[(Benzofuran-2-ylmethyl)-amino]-N-[2-(3-fluoro-phenyl)-ethyl]-3-(1H-indol-3-yl)-propionamide]
264 nM | O=C(NCCc1ccccc1F)C(Cc1c[nH]c2ccccc12)NCc1cc2ccccc2o1 (stereo not drawn) [Example 274, 2-[(Benzofuran-2-ylmethyl)-amino]-N-[2-(2-fluoro-phenyl)-ethyl]-3-(1H-indol-3-yl)-propionamide]
75 nM | CC(NC(=O)C(Cc1c[nH]c2ccccc12)NCc1cc2ccccc2o1)c1ccccc1 (stereo not drawn) [Example 234, 2-[(Benzofuran-2-ylmethyl)-amino]-3-(1H-indol-3-yl)-N-(1-phenyl-ethyl)-propionamide]

Same assay, conditions: Table 4; [125I]Bolton-Hunter substance P displacement, human IM9 cells; read-out: IC50 (nM) hNK1

IC50 | Compound
3040 nM | CC(NC(=O)C(C)(Cc1c[nH]c2ccccc12)NCCNC(=O)CN1C(=O)c2ccccc2C1=O)c1ccccc1 (stereo not drawn) [compound 321, 2-{2-[2-(1,3-Dioxo-1,3-dihydro-isoindol-2-yl)-acetylamino]-ethylamino}-3-(1H-indol-3-yl)-2-methyl-N-(1-phenyl-ethyl)-propionamide]
1730 nM | CC(NC(=O)C(C)(Cc1c[nH]c2ccccc12)NCc1ccc2c(c1)Cc1ccccc1-2)c1ccccc1 (stereo not drawn) [compound 354, 2-[(9H-Fluoren-2-ylmethyl)-amino]-3-(1H-indol-3-yl)-2-methyl-N-(1-phenyl-ethyl)-propionamide]
2100 nM | COc1ccc2cc(CNC(C)(Cc3c[nH]c4ccccc34)C(=O)NC(C)c3ccccc3)oc2c1 (stereo not drawn) [compound 319, 3-(1H-Indol-3-yl)-2-[(6-methoxy-benzofuran-2-ylmethyl)-amino]-2-methyl-N-(1-phenyl-ethyl)-propionamide]
356 nM | CC(NC(=O)C(C)(Cc1c[nH]c2ccccc12)NCc1ccc2c(c1)OCO2)c1ccccc1 (stereo not drawn) [compound 349, 2-[(Benzo[1,3]dioxol-5-ylmethyl)-amino]-3-(1H-indol-3-yl)-2-methyl-N-(1-phenyl-ethyl)-propionamide]
1820 nM | CC(NC(=O)C(C)(Cc1c[nH]c2ccccc12)NCc1ccoc1)c1ccccc1 (stereo not drawn) [compound 312, 2-[(Furan-3-ylmethyl)-amino]-3-(1H-indol-3-yl)-2-methyl-N-(1-phenyl-ethyl)-propionamide]

Compound | IC50
CC(NC(=O)C(C)(Cc1c[nH]c2ccccc12)NCc1cc2ccccc2o1)c1ccccc1 (stereo not drawn) [compound 343, 2-[(Benzofuran-2-ylmethyl)-amino]-3-(1H-indol-3-yl)-2-methyl-N-(1-phenyl-ethyl)-propionamide] | 13 nM

Same assay, conditions: Table 5; [125I]Bolton-Hunter substance P displacement, human IM9 cells; read-out: IC50 (nM) hNK1

IC50 | Compound
534 nM | CC(NC(=O)C(Cc1c[nH]c2ccccc12)NCC(Cc1ccccc1)c1ccccc1)c1ccccc1 (stereo not drawn) [compound 370]
881 nM | CC(NC(=O)C(Cc1c[nH]c2ccccc12)NCc1ccoc1)c1ccccc1 (stereo not drawn) [compound 402]

Same assay, conditions: human NK1 receptor, IM9 cells, [125I]Bolton-Hunter substance P; read-out: IC50 (nM) hNK1

Compound | IC50
2-[(Benzofuran-2-ylmethyl)-amino]-N-(5-hydroxy-4-oxo-4H-pyran-2-ylmethyl)-3-(1H-indol-3-yl)-2-methyl-propionamide [compound 164] | > 10000 nM
CC(Cc1c[nH]c2ccccc12)(NCc1cc2ccccc2o1)C(=O)NC(Cc1ccccc1)c1ccccc1 (stereo not drawn) [compound 75, 2-[(Benzofuran-2-ylmethyl)-amino]-N-(1,2-diphenyl-ethyl)-3-(1H-indol-3-yl)-2-methyl-propionamide] | > 10000 nM
CC(Cc1c[nH]c2ccccc12)(NCc1cc2ccccc2o1)C(=O)NCc1cccc(C(F)(F)F)c1 (stereo not drawn) [compound 74, 2-[(Benzofuran-2-ylmethyl)-amino]-3-(1H-indol-3-yl)-2-methyl-N-(3-trifluoromethyl-benzyl)-propionamide] | 12 nM
CC(Cc1c[nH]c2ccccc12)(NCc1cc2ccccc2o1)C(=O)NC1Cc2ccccc2C1 (stereo not drawn) [compound 113, 2-[(Benzofuran-2-ylmethyl)-amino]-N-indan-2-yl-3-(1H-indol-3-yl)-2-methyl-propionamide] | 463 nM
CC(Cc1c[nH]c2ccccc12)(NCc1cc2ccccc2o1)C(=O)NCCN1CCCCC1 (stereo not drawn) [compound 125, 2-[(Benzofuran-2-ylmethyl)-amino]-3-(1H-indol-3-yl)-2-methyl-N-(2-piperidin-1-yl-ethyl)-propionamide] | > 10000 nM
CC(Cc1c[nH]c2ccccc12)(NCc1cc2ccccc2o1)C(=O)NCc1cccc(N)c1 (stereo not drawn) [compound 178, N-(3-Amino-benzyl)-2-[(benzofuran-2-ylmethyl)-amino]-3-(1H-indol-3-yl)-2-methyl-propionamide] | 1370 nM

Second part, the compound after the results:

IC50 | Compound
191 nM | CC(Cc1c[nH]c2ccccc12)(NCc1cc2ccccc2o1)C(=O)NCc1ccco1 (stereo not drawn) [compound 127, 2-[(Benzofuran-2-ylmethyl)-amino]-N-furan-2-ylmethyl-3-(1H-indol-3-yl)-2-methyl-propionamide]
4570 nM | CC(Cc1c[nH]c2ccccc12)(NCc1cc2ccccc2o1)C(=O)NCC1Cc2ccccc2CN1 (stereo not drawn) [compound 108, 2-[(Benzofuran-2-ylmethyl)-amino]-3-(1H-indol-3-yl)-2-methyl-N-(1,2,3,4-tetrahydro-isoquinolin-3-ylmethyl)-propionamide]
1280 nM | CC(Cc1c[nH]c2ccccc12)(NCc1cc2ccccc2o1)C(=O)NCc1ccccn1 (stereo not drawn) [compound 23, 2-[(Benzofuran-2-ylmethyl)-amino]-3 (1H-indol-3-yl)-2-methyl-N-pyridin-2 ylmethyl-propionamide]
94 nM | CC(Cc1c[nH]c2ccccc12)(NCc1cc2ccccc2o1)C(=O)NCc1ccc2c(c1)OCO2 (stereo not drawn) [compound 174, N-Benzo[1,3]dioxol-5-ylmethyl-2-[(benzofuran-2-ylmethyl)-amino]-3-(1H-indol-3-yl)-2-methyl-propionamide]
311 nM | CC(Cc1c[nH]c2ccccc12)(NCc1cc2ccccc2o1)C(=O)NCC1CCCCC1 (stereo not drawn) [compound 27, 2-[(Benzofuran-2-ylmethyl)-amino]-N-cyclohexylmethyl-3-(1H-indol-3-yl)-2-methyl-propionamide]
262 nM | CC(Cc1c[nH]c2ccccc12)(NCc1cc2ccccc2o1)C(=O)NCCc1ccccc1 (stereo not drawn) [compound 53, 2-[(Benzofuran-2-ylmethyl)-amino]-3-(1H-indol-3-yl)-2-methyl-N-phenethyl-propionamide]
> 10000 nM | CC(Cc1c[nH]c2ccccc12)(NCc1cc2ccccc2o1)C(=O)NC(CO)Cc1c[nH]cn1 (stereo not drawn) [compound 183, 2-[(Benzofuran-2-ylmethyl)-amino]-N-[1-hydroxymethyl-2-(1H-imidazol-4-yl)-ethyl]-3-(1H-indol-3-yl)-2-methyl-propionamide]

Reference: US6472418B1, “Non-peptide NK1 receptors antagonists” (Warner-Lambert Company, priority 1998, dated 2002)
